Laboratory results taken from patent publication US20250002475A1 (EPICS THERAPEUTICS, priority 2023, published 2025).

Columns and labels:
[1] = biological target: T1, recombinant METTL3/METTL14 complex (Homo sapiens, UniProt Q86U44); assay: METTL3/14 Scintillation Proximity Assay (SPA), RNA methyltransferase activity; format: biochemical; conditions: 5.31 nM METTL3/14 complex, 250 nM RNA substrate, 1 μM 3H-SAM, 90 min; for compounds marked * best of the two separated forms
T1 construct: purchased Active Motif 311970; host or cells: Sf9 cells
T1 sequence (Q86U44 whole entry): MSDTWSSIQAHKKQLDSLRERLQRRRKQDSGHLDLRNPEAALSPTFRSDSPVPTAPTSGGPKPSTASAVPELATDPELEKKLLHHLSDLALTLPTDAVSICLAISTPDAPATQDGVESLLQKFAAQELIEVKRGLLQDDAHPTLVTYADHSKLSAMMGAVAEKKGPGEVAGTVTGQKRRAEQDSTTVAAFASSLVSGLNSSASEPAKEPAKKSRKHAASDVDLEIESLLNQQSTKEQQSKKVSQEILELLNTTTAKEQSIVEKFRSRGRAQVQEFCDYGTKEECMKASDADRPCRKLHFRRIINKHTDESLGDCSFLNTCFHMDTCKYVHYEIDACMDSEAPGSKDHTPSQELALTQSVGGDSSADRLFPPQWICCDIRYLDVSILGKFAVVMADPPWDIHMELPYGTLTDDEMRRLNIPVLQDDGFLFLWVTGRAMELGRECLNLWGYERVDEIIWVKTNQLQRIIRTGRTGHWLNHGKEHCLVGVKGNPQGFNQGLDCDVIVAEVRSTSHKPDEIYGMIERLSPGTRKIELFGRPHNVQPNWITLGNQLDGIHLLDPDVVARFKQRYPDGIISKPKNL
T1 sequence (Q9HCE5 whole entry partner): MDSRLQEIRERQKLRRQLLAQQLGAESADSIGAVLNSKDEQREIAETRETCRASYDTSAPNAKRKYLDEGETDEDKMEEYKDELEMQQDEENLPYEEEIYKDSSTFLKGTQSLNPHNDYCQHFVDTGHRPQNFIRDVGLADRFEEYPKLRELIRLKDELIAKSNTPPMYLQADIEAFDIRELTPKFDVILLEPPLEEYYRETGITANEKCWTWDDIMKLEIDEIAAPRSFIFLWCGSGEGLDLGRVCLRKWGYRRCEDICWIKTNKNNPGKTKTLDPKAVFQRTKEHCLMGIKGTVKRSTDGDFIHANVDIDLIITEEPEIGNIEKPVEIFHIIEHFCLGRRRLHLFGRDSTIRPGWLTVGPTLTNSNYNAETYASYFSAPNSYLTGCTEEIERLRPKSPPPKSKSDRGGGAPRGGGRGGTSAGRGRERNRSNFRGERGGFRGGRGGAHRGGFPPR

Caov-3 cells = assay: Caov-3 cellular viability assay (ATP-Lite, 72 h); format: cell-based; conditions: Homo sapiens, ATP-Lite luminescence, % viability relative to DMSO
Summary of the method: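 10000 cells/well treated 72 h at 37 °C, 5% CO2, in RPMI-1640 with 10% FBS and 0.1% DMSO final. Viability by ATP-Lite One Step luminescence. Expressed as % of DMSO control, with IC50 from each compound's concentration-response curve.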

Kasumi-1 cells = assay: Kasumi-1 cellular viability assay (ATP-Lite, 72 h); format: cell-based; conditions: Homo sapiens, ATP-Lite luminescence, % viability relative to DMSO
Summary of the method: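 Kasumi-1 AML cells, 15000/well in RPMI-1640 with 10% FBS, were exposed to compound titrations (0.1% final DMSO) for 72 h at 37 °C, 5% CO2. ATP-Lite One Step luminescence gave % viability versus DMSO control, and IC50 came from the concentration-response.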

Row | Compound | IC50 [1] [µM] | IC50 (Caov-3 cells) [µM] | IC50 (Kasumi-1 cells) [µM]
1 | O=C(Nc1cc(=O)n2ccccc2n1)C1(c2ncc(N3CCC[C@@H](NCC4CCC4)C3)cc2F)COC1 [Compound 298, (R)-3-(5-(3-((cyclobutylmethyl)amino)piperidin-1-yl)-3-fluoropyridin-2-yl)-N-(4-oxo-4H-pyrido[1,2-a]pyrimidin-2-yl)oxetane-3-carboxamide] | ≤ 0.05 | 0.5 to 5 | 0.5 to 5
2 | CC(c1ccc(N2CCC[C@@H](NCC34CC(F)(C3)C4)C2)cn1)n1cc(-c2cncc(N3CCCC3)n2)nn1 (stereo partly drawn) [Compound 304, (3R)—N-((3-fluorobicyclo[1.1.1]pentan-1-yl)methyl)-1-(6-(1-(4-(6-(pyrrolidin-1-yl)pyrazin-2-yl)-1H-1,2,3-triazol-1-yl)ethyl)pyridin-3-yl)piperidin-3-amine] | ≤ 0.05 | ≤ 0.5 | ≤ 0.5
3 | CC(c1ccc(N2CCC[C@@H](NCC34CC(F)(C3)C4)C2)nn1)n1cc(-c2cncc(N3CCCC3)n2)nn1 (stereo partly drawn) [Compound 305, (3R)—N-((3-fluorobicyclo[1.1.1]pentan-1-yl)methyl)-1-(6-(1-(4-(6-(pyrrolidin-1-yl)pyrazin-2-yl)-1H-1,2,3-triazol-1-yl)ethyl)pyridazin-3-yl)piperidin-3-amine] | ≤ 0.05 | ≤ 0.5 | ≤ 0.5
4 | c1ncc(-c2cn(C3(c4ccc(N5CCC[C@@H](NCC6CCC6)C5)cn4)COC3)nn2)cc1OC1CCC1 [Compound 307, (R)-1-(6-(3-(4-(5-cyclobutoxypyridin-3-yl)-1H-1,2,3-triazol-1-yl)oxetan-3-yl)pyridin-3-yl)-N-(cyclobutylmethyl)piperidin-3-amine] | ≤ 0.05 | ≤ 0.5 | ≤ 0.5
5 | Cn1c(N2CCCC2)cc(NC(=O)C2(c3ccc(N4CCC[C@@H](NCC5CCC5)C4)cn3)COC2)cc1=O [Compound 310, (R)-3-(5-(3-((cyclobutylmethyl)amino)piperidin-1-yl)pyridin-2-yl)-N-(1-methyl-2-oxo-6-(pyrrolidin-1-yl)-1,2-dihydropyridin-4-yl)oxetane-3-carboxamide] | ≤ 0.05 | ≤ 0.5 | 0.5 to 5
6 | O=C(Nc1cc(=O)n2ccsc2n1)C1(c2ccc(N3CCC[C@@H](NCC4CCC4)C3)cn2)COC1 [Compound 311, (R)-3-(5-(3-((cyclobutylmethyl)amino)piperidin-1-yl)pyridin-2-yl)-N-(5-oxo-5H-thiazolo[3,2-a]pyrimidin-7-yl)oxetane-3-carboxamide] | ≤ 0.05 | ≤ 0.5 | ≤ 0.5
7 | FC1(F)CC(c2ccc(N3CCC[C@@H](NCC4CC4)C3)cn2)(n2cc(-c3cncc(C4CC4)c3)nn2)C1 [Compound 315, (R)-N-(cyclopropylmethyl)-1-(6-(1-(4-(5-cyclopropylpyridin-3-yl)-1H-1,2,3-triazol-1-yl)-3,3-difluorocyclobutyl)pyridin-3-yl)piperidin-3-amine] | ≤ 0.05 | 0.5 to 5 | 0.5 to 5
8 | O=c1cc(-c2cn(C3(c4ccc(N5CCC[C@@H](NCC6CC6)C5)cn4)COC3)nn2)nc2ccccn12 [Compound 316, (R)-2-(1-(3-(5-(3-((cyclopropylmethyl)amino)piperidin-1-yl)pyridin-2-yl)oxetan-3-yl)-1H-1,2,3-triazol-4-yl)-4H-pyrido[1,2-a]pyrimidin-4-one] | ≤ 0.05 | 0.5 to 5 | 0.5 to 5
9 | CC(n1cc(-c2cncc(C3CC3)c2)nn1)n1ccc(N2CCC[C@@H](NCC3CC3)C2)cc1=O (stereo partly drawn) [Compound 320, 4-((R)-3-((cyclopropylmethyl)amino)piperidin-1-yl)-1-(1-(4-(5-cyclopropylpyridin-3-yl)-1H-1,2,3-triazol-1-yl)ethyl)pyridin-2(1H)-one] | ≤ 0.05 | ≤ 0.5 | ≤ 0.5
10 | O=C(Nc1cc(=O)n2ccccc2n1)C1(c2ccc(N3CCC[C@@H](NCC4CC4)C3)nc2)COC1 [Compound 321, (R)-3-(6-(3-((cyclopropylmethyl)amino)piperidin-1-yl)pyridin-3-yl)-N-(4-oxo-4H-pyrido[1,2-a]pyrimidin-2-yl)oxetane-3-carboxamide] | ≤ 0.05 | 0.5 to 5 | 0.5 to 5
11 | O=C(Nc1cc(=O)n2ccccc2n1)C1(c2ccc(N3CCC[C@@H](NCC4CCC4)C3)nc2)COC1 [Compound 322, (R)-3-(6-(3-((cyclobutylmethyl)amino)piperidin-1-yl)pyridin-3-yl)-N-(4-oxo-4H-pyrido[1,2-a]pyrimidin-2-yl)oxetane-3-carboxamide] | ≤ 0.05 | 0.5 to 5 | 0.5 to 5
12 | O=C(Nc1cc(=O)n2ccccc2n1)C1(c2ccc(N3CCC[C@@H](NCC4CCCC4)C3)cn2)COC1 [Compound 325, (R)-3-(5-(3-((cyclopentylmethyl)amino)piperidin-1-yl)pyridin-2-yl)-N-(4-oxo-4H-pyrido[1,2-a]pyrimidin-2-yl)oxetane-3-carboxamide] | ≤ 0.05 | ≤ 0.5 | 0.5 to 5
13 | O=C(Nc1cc(=O)n2ccccc2n1)C1(c2ccc(N3CCC[C@@H](NC4CCCC4)C3)cn2)COC1 [Compound 326, (R)-3-(5-(3-(cyclopentylamino)piperidin-1-yl)pyridin-2-yl)-N-(4-oxo-4H-pyrido[1,2-a]pyrimidin-2-yl)oxetane-3-carboxamide] | ≤ 0.05 | ≤ 0.5 | 0.5 to 5
14 | O=C(Nc1cc(=O)n2ccccc2n1)C1(c2ccc(N3CCC[C@@H](NC4CCC4)C3)cn2)COC1 [Compound 327, (R)-3-(5-(3-(cyclobutylamino)piperidin-1-yl)pyridin-2-yl)-N-(4-oxo-4H-pyrido[1,2-a]pyrimidin-2-yl)oxetane-3-carboxamide] | ≤ 0.05 | 0.5 to 5 | 0.5 to 5
15 | O=C(Nc1cc(=O)n2ccccc2n1)C1(c2ccc(N3CCC[C@@H](NCC4(C(F)(F)F)CC4)C3)cn2)COC1 [Compound 328, (R)-N-(4-oxo-4H-pyrido[1,2-a]pyrimidin-2-yl)-3-(5-(3-(((1-(trifluoromethyl)cyclopropyl)methyl)amino)piperidin-1-yl)pyridin-2-yl)oxetane-3-carboxamide] | ≤ 0.05 | ≤ 0.5 | 0.5 to 5

Further lines, with some results ahead:

Row | IC50 [1] [µM] | Compound | IC50 (Caov-3 cells) [µM] | IC50 (Kasumi-1 cells) [µM]
16 | ≤ 0.05 | c1cc(C2(n3cc(-c4cncc(N5CCCC5)n4)nn3)COC2)ccc1N1CCC[C@@H](NCC2CCC2)C1 [Compound 301, (R)-N-(cyclobutylmethyl)-1-(4-(3-(4-(6-(pyrrolidin-1-yl)pyrazin-2-yl)-1H-1,2,3-triazol-1-yl)oxetan-3-yl)phenyl)piperidin-3-amine] | ≤ 0.5 | ≤ 0.5
17 | ≤ 0.05 | c1ncc(C2CC2)cc1-c1cn(C2(c3ccc(N4CCC[C@@H](NCC5CCC5)C4)cn3)COC2)nn1 [Compound 306, (R)-N-(cyclobutylmethyl)-1-(6-(3-(4-(5-cyclopropylpyridin-3-yl)-1H-1,2,3-triazol-1-yl)oxetan-3-yl)pyridin-3-yl)piperidin-3-amine] | ≤ 0.5 | ≤ 0.5
18 | ≤ 0.05 | FC12CC(CN[C@@H]3CCCN(c4ccc(C5(n6cc(-c7cncc(N8CCCC8)n7)nn6)COC5)nc4)C3)(C1)C2 [Compound 308, (R)-N-((3-fluorobicyclo[1.1.1]pentan-1-yl)methyl)-1-(6-(3-(4-(6-(pyrrolidin-1-yl)pyrazin-2-yl)-1H-1,2,3-triazol-1-yl)oxetan-3-yl)pyridin-3-yl)piperdin-3-amine] | ≤ 0.5 | ≤ 0.5
19 | ≤ 0.05 | c1ncc(C2CCC2)cc1-c1cn(C2(c3ccc(N4CCC[C@@H](NCC5CC5)C4)cn3)COC2)nn1 [Compound 312, (R)-1-(6-(3-(4-(5-cyclobutylpyridin-3-yl)-1H-1,2,3-triazol-1-yl)oxetan-3-yl)pyridin-3-yl)-N-(cyclopropylmethyl)piperidin-3-amine] | ≤ 0.5 | ≤ 0.5
20 | ≤ 0.05 | c1ncc(C2CCCC2)cc1-c1cn(C2(c3ccc(N4CCC[C@@H](NCC5CC5)C4)cn3)COC2)nn1 [Compound 313, (R)-1-(6-(3-(4-(5-cyclopentylpyridin-3-yl)-1H-1,2,3-triazol-1-yl)oxetan-3-yl)pyridin-3-yl)-N-(cyclopropylmethyl)piperidin-3-amine] | ≤ 0.5 | ≤ 0.5
21 | ≤ 0.05 | O=C(Nc1cncc(N2CCCC2)n1)C1(c2ccc(N3CCC[C@@H](NCC4CCC4)C3)nc2)COC1 [Compound 319, (R)-3-(6-(3-((cyclobutylmethyl)amino)piperidin-1-yl)pyridin-3-yl)-N-(6-(pyrrolidin-1-yl)pyrazin-2-yl)oxetane-3-carboxamide] | ≤ 0.5 | ≤ 0.5
22 | ≤ 0.05 | c1cc(C2(n3cc(-c4cncc(C5CC5)n4)nn3)COC2)ncc1N1CCC[C@@H](NCC2CC2)C1 [Compound 323, (R)-N-(cyclopropylmethyl)-1-(6-(3-(4-(6-cyclopropylpyrazin-2-yl)-1H-1,2,3-triazol-1-yl)oxetan-3-yl)pyridin-3-yl)piperidin-3-amine] | ≤ 0.5 | ≤ 0.5
23 | ≤ 0.05 | O=C(Nc1cncc(N2CCCC2)n1)C1(c2ccc(N3CCC[C@@H](NCC4CC4)C3)nc2)COC1 [Compound 324, (R)-3-(6-(3-((cyclopropylmethyl)amino)piperidin-1-yl)pyridin-3-yl)-N-(6-(pyrrolidin-1-yl)pyrazin-2-yl)oxetane-3-carboxamide] | ≤ 0.5 | ≤ 0.5
